According to the supplement of paper PMC13380429:

Columns and labels:
Settings in all cases: 72 h
U2OS [1] = assay: drug sensitivity score (DSS) for viability; higher = more toxic; extreme values may be limits of the assay
Calu-3 [2] = assay: as above
HepG2 [3] = assay: as above
Vero E6 [4] = assay: as above
Caco-2 [5] = assay: as above
U2OS [6] = assay: cell viability relative to DMSO; higher = less toxic
Calu-3 [7] = assay: as above
HepG2 [8] = assay: as above
Vero E6 [9] = assay: as above
Caco-2 [10] = assay: as above
U2OS [11] = assay: relative viability EC50 (midpoint between 100% and the lowest measured viability); higher = less toxic
Calu-3 [12] = assay: as above
HepG2 [13] = assay: as above
Vero E6 [14] = assay: as above
Caco-2 [15] = assay: as above

SMILES	drug sensitivity score (U2OS [1])	drug sensitivity score (Calu-3 [2])	drug sensitivity score (HepG2 [3])	drug sensitivity score (Vero E6 [4])	drug sensitivity score (Caco-2 [5])	cell viability (U2OS [6]; 1 nM)	cell viability (U2OS [6]; 10 nM)	cell viability (U2OS [6]; 100 nM)	cell viability (U2OS [6]; 1000 nM)	cell viability (U2OS [6]; 10000 nM)	cell viability (Calu-3 [7]; 1 nM)	cell viability (Calu-3 [7]; 10 nM)	cell viability (Calu-3 [7]; 100 nM)	cell viability (Calu-3 [7]; 1000 nM)	cell viability (Calu-3 [7]; 10000 nM)	cell viability (HepG2 [8]; 1 nM)	cell viability (HepG2 [8]; 10 nM)	cell viability (HepG2 [8]; 100 nM)	cell viability (HepG2 [8]; 1000 nM)	cell viability (HepG2 [8]; 10000 nM)	cell viability (Vero E6 [9]; 1 nM)	cell viability (Vero E6 [9]; 10 nM)	cell viability (Vero E6 [9]; 100 nM)	cell viability (Vero E6 [9]; 1000 nM)	cell viability (Vero E6 [9]; 10000 nM)	cell viability (Caco-2 [10]; 1 nM)	cell viability (Caco-2 [10]; 10 nM)	cell viability (Caco-2 [10]; 100 nM)	cell viability (Caco-2 [10]; 1000 nM)	cell viability (Caco-2 [10]; 10000 nM)	relative viability EC50 (U2OS [11])	relative viability EC50 (Calu-3 [12])	relative viability EC50 (HepG2 [13])	relative viability EC50 (Vero E6 [14])	relative viability EC50 (Caco-2 [15])
OC[C@H]1O[C@@H](n2cnc3c(NC4CCCC4)ncnc32)[C@H](O)[C@@H]1O [N6-cyclopentyladenosine]	0	0	0	0	0	97.7%	98.8%	98.2%	102%	112%	108%	96.6%	94%	102%	100%	112%	95.6%	99.1%	92.7%	100%	92.4%	91.4%	92.2%	93.9%	102%	92.8%	99.7%	109%	104%	116%	> 10 µM	> 10 µM	> 10 µM	> 10 µM	> 10 µM
CC(C)NNC(=O)c1ccncc1 [iproniazid]	0	0	0	0	0	96.6%	98.9%	97.4%	103%	104%	93.2%	97.9%	94.6%	107%	99.6%	108%	96.4%	108%	104%	105%	100%	95.1%	101%	90.8%	108%	93.6%	95.9%	98.9%	90.8%	103%	> 10 µM	> 10 µM	> 10 µM	> 10 µM	> 10 µM
COC(=O)N[C@H](C(=O)N1CCC[C@H]1c1nc(-c2ccc3c(c2)O[C@@H](c2ccccc2)n2c-3cc3cc(-c4c[nH]c([C@@H]5CCCN5C(=O)[C@@H](NC(=O)OC)C(C)C)n4)ccc32)c[nH]1)C(C)C [elbasvir]	0	0	0	0	0	90.3%	100%	98.2%	97.8%	99.7%	99.9%	106%	95.8%	107%	102%	110%	88.7%	108%	104%	96.8%	105%	98.5%	95.3%	95.5%	107%	85%	103%	93.1%	96.1%	101%	> 10 µM	> 10 µM	> 10 µM	> 10 µM	> 10 µM
CC[C@]12CCCN3CCc4c(n(c5ccccc45)[C@@](O)(C(=O)OC)C1)[C@@H]32 [vincamine]	0	0	0	0	0	95.3%	99.3%	96.2%	99.7%	97.3%	103%	94.2%	94.9%	95.6%	102%	99.1%	73.5%	118%	102%	97.7%	103%	89.9%	104%	94%	97.7%	101%	105%	91.6%	101%	100%	> 10 µM	> 10 µM	> 10 µM	> 10 µM	> 10 µM
CCCC[C@]1(CC)CS(=O)(=O)c2cc(CNC(CC(=O)O)CC(=O)O)c(OC)cc2[C@@H](c2ccccc2)N1	0	0	0	0	0	96.7%	101%	96.8%	104%	104%	96.3%	101%	98%	89.5%	100%	105%	112%	108%	97.7%	112%	95.7%	94.1%	96.5%	91.1%	104%	90%	97.8%	99.7%	96.5%	105%	> 10 µM	> 10 µM	> 10 µM	> 10 µM	> 10 µM
Nc1ncnc2c1ncn2[C@@H]1O[C@@H]2COP(=O)(O)O[C@H]2[C@H]1O [cyclic-AMP]	0	0	0	0	0	103%	103%	96.1%	102%	99.6%	100%	107%	103%	111%	95.5%	97.7%	100%	89.5%	102%	92.2%	102%	98.6%	93.9%	102%	98.9%	89.8%	93%	94.5%	93.5%	95.9%	> 10 µM	> 10 µM	> 10 µM	> 10 µM	> 10 µM
CCOC(=O)Nc1ccc2c(c1)N(C(=O)CCN(CC)CC)c1ccccc1S2 [ethacizin]	0	0	0.2	0	0	97.2%	105%	95.6%	101%	95.9%	98.3%	94.8%	97.4%	99.2%	98.1%	86.4%	90.4%	80.8%	92.7%	104%	104%	91.8%	103%	88.9%	106%	94.6%	82.9%	97.8%	103%	97.6%	> 10 µM	> 10 µM	> 10 µM	> 10 µM	> 10 µM
COc1cc(O)c(C(=O)c2ccccc2)cc1S(=O)(=O)O [sulisobenzone]	0	0	0	0	0	103%	94.8%	98.4%	94.6%	98.7%	100%	106%	98.1%	109%	102%	93.3%	101%	99.8%	99.3%	98.3%	103%	99.1%	95.7%	95.9%	89.9%	104%	96.3%	102%	91.8%	103%	> 10 µM	> 10 µM	> 10 µM	> 10 µM	> 10 µM
CC(C)[C@H](CO)Nc1nc(Nc2cccc(Cl)c2)c2ncn(C(C)C)c2n1 [purvalanol-A]	0.2	0	0.4	1.4	0.4	97.4%	105%	95.5%	99%	86.4%	102%	109%	96.5%	102%	91.4%	90.8%	96.8%	100%	94.8%	87.2%	100%	97.4%	93.7%	95.5%	77.3%	91.6%	103%	93.4%	94.2%	83.1%	> 10 µM	> 10 µM	> 10 µM	> 10 µM	> 10 µM
CCOc1ccccc1OCC1CNCCO1 (stereo not given) [viloxazine]	0	0	0	0	0	94.8%	98.5%	102%	104%	105%	86.6%	98.2%	98.6%	100%	111%	116%	91.7%	111%	94.7%	96.6%	96.4%	89.4%	94.1%	92.2%	102%	111%	99.5%	113%	118%	95.6%	> 10 µM	> 10 µM	> 10 µM	> 10 µM	> 10 µM
CS(=O)(=O)c1ccc(Cn2c3c(c4cc(F)cc(F)c42)CCCC3CC(=O)O)cc1 (stereo not given)	0	0	0	0	0	93.1%	97.2%	93.5%	97.1%	97.6%	99.7%	98.4%	95.3%	103%	100%	108%	91%	97.3%	95.6%	94%	98%	101%	100%	99.1%	95.4%	97.6%	96.4%	96.5%	96%	97.7%	> 10 µM	> 10 µM	> 10 µM	> 10 µM	> 10 µM
COc1cc(C2Oc3cc([C@H]4Oc5cc(O)cc(O)c5C(=O)[C@@H]4O)ccc3OC2CO)ccc1O (stereo not given in full) [silibinin]	0	0	0	0	0	96%	103%	95.8%	98.9%	93.6%	99.9%	108%	92.6%	98.6%	99.3%	100%	97.8%	101%	91.1%	93.1%	99.1%	106%	101%	103%	99.2%	103%	102%	93%	104%	100%	> 10 µM	> 10 µM	> 10 µM	> 10 µM	> 10 µM
NNC(=O)c1ccncc1 [isoniazid]	0	0	0	0	0	101%	96.6%	101%	96.7%	102%	110%	98.7%	100%	99.2%	99.8%	107%	108%	100%	103%	93.7%	97.8%	106%	97.9%	97.9%	98.4%	97.4%	99.4%	103%	91.7%	97.6%	> 10 µM	> 10 µM	> 10 µM	> 10 µM	> 10 µM
CC1(C)O[C@H]2CC(=O)OC[C@]23[C@H]2CC[C@@]4(C)[C@H](c5ccoc5)OC(=O)[C@H]5O[C@]54[C@]2(C)C(=O)C[C@@H]13 [limonin]	0	0	0	0	0	95.6%	98.6%	107%	99%	100%	104%	89.5%	109%	99.6%	102%	102%	105%	91.5%	111%	97.2%	97.1%	97.1%	93.7%	98.6%	104%	97.5%	95.8%	106%	98.5%	105%	> 10 µM	> 10 µM	> 10 µM	> 10 µM	> 10 µM
